For test [1], the system named is KA induced SE. The experiment in a line: KA induced ongoing SE, EEG recording, treatment 2h after KA. It counts as in vivo, mice. The procedure: (§1) EEG recordings and analysis. WT C57Bl/6J adult male mice (12 weeks) were anesthetized with isofluorane and implanted with EEG/EMG electrodes and allowed to recover for 7 days prior to experimentation. […] 2h following KA administration mice were injected with a saturating concentration of diazepam (DZ) 10 mg/kg (IP) and recordings were extended for a further 60 min. […] LabChart 8 software was used for data analysis. Epileptiform activity was identified by changes in the amplitude of electrographic activity characterized by consistent changes in the power of the Fast Fourier transform (FFT) of the EEG and abnormal activity characterized by periods of rhythmic spiking lasting longer than 30s (Moore et al., 2017, supra; Silayeva et al., 2015, supra; Sivakumaran et al., J. Neurosci. 35, 8291-8296 (2015)).
To evaluate the potential of KCC2 activators to terminate ongoing SE, the KA model described above was employed. Mice were injected with KA (20 mg/Kg; IP). […] Spectral data were then subjected to FFT and the total EEG power between 1-100 Hz of the 2h following KA treatment (pre-drug) and 30 min following their injection (post-drug) were compared (FIG. 6B). In mice treated with DZ alone variable effects were observed, from large increases to modest reductions in EEG power, but these effects were not significant (FIG. 6C; pre=1.1±0.2×10^−6, post=4.4±7.4×10^−7 μV^2, p=0.214, n=13-14 mice). […] The latency of the treatments to modify EEG power was examined by measuring the time taken for this parameter to be reduced to 50% (FIG. 6E). […] Finally in mice treated with DZ alone 62% were insensitive to the effects of this agent on EEG power.

Test [2] concerns KA induced SE. Nature of the test: Kainic acid (KA) induced SE, EEG recording, pretreatment. It counts as in vivo, mice. Particulars: mice pretreated with vehicle; DZ 10 mg/kg IP 2h after KA; pre 4.2±2.4×10^−6.
Excerpt: This model was chosen due to the similarities with patients undergoing SE, as KA-induced seizures become refractory to benzodiazepines (BDZs) within minutes (Betjemann and Lowenstein, Lancet Neurol 14, 615-624 (2015); Crawshaw and Cock, (2020a) [Seizure: Eur. J. Epilep. 75 (2020) 145-152] Seizure 80, 282; Lee et at, 2022, supra; Reddy and Kuruba, Int J Mol Sci 14, 18284-18318 (2013)).
as §1
To provide quantitative insights on the effects of KA, raw EEG recordings were subject to Fast-Fourier transformation (8K FFT size, Hann (cosine-bell), 87.50% window overlap) for frequencies between 0-100 Hz 2h after KA injection (Lee et at, 2022, supra).
30 or 60 min later mice were injected with KA (20 mg/kg) and 2h later with DZ as detailed above.

Take `CN1C(=O)CN=C(c2ccccc2)c2cc(Cl)ccc21` [DZ, diazepam]: the “total EEG power post-drug” value in test [1] (30 min after injection, given 2h after KA, DZ 10 mg/kg, Compound A 50 mg/Kg IP) is 4.4±7.4×10^−7 μV^2. Besides, the “mice insensitive to DZ effects on EEG power” value in test [1] (treatment 2h after KA) is given as 62%. In test [2], the “total EEG power post DZ” value was 2.9±2.7×10^−6 μV^2.
